Reference: patent publication US20260234115A1, “LIPID COMPOUNDS, COMPOSITIONS, AND USES THEREOF” (Liberate Bio, Inc., priority 2023, published 2026)
Marks after values point to notes of the source that are not given here.

Legend:
mouse organs = experiment: In vivo activity screening in mice: organ mean total flux (p/s) of luciferase activity after injection of F2 LNP pools (Table 6, FIG. 7A-7C); details: Mouse 1, dose 0.3 mg/kg, luciferase mRNA
Summary of the method: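 Luciferase output per organ is reported as mean total flux (p/s) from IVIS regions of interest. Organs were collected from perfused C57BL/6J mice and imaged 10-15 min after s.c. D-luciferin, 4-6 h after i.v. dosing. Dosing was 0.25-3 mg/kg luciferase mRNA in F2 LNP pools.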

[1] = Plate-based fluorescence (RiboGreen) assay: nucleic acid cargo content and encapsulation efficiency of LNPs; format: physicochemical; details: for EE (%) N/P:3 / EE (%) N/P:6: LNP
Experimental: (§1) Lipids and active ingredients (e.g., RNA, DNA, etc.) were assembled into LNPs using microfluidic mixing. An ethanol phase was prepared by solubilizing ionizable lipids (i.e., lipid compounds), phospholipids (e.g., DSPC), cholesterol, and PEG lipids in ethanol, at predetermined mol % ratios given in Table 2. An aqueous phase was prepared by diluting a nucleic acid cargo (e.g., firefly luciferase mRNA) in an acidified buffer (pH 4.0 citrate buffer, 50 mM). A chip with microfluidic mixing architecture (e.g., toroidal mixer) was used to mix the two phases at predetermined flow rate ratios (e.g., 9 ml/min for the aqueous phase and 3 ml/min for the ethanol phase). Resulting LNPs comprising the lipids and encapsulating the nucleic acid cargo were dialyzed against PBS pH 7.4 for 2 hours at room temperature in a 20 kDa MWCO dialysis membrane. Then, PBS was refreshed to continue dialysis overnight at 2-8 TC. Upon completion of the buffer exchange, LNPs were optionally concentrated using a ultracentrifugal unit with a 10-100 kDa MWCO membrane.
c. Plate-Based Fluorescence (RiboGreen) Assay
Nucleic acid cargos in the LNPs were quantified by RiboGreen assay, against a nucleic acid standard curve. LNPs encapsulating nucleic acid cargo were mixed with 1× Tris-EDTA (TE) and 2% triton in TE, separately, to achieve dilutions required by the assay. Then, the samples were heated at 30° C. and vortexed at 300 rpm. Samples were plated into 96-well plates and RiboGreen reagent was added into each well. Following incubation in the dark, fluorescence was measured from the wells, and plotted against the standard curve. Nucleic acid concentration obtained from the Triton-treated samples were used for total cargo concentration quantification. Only TE diluted sample fluorescence values were used to determine the non-encapsulated (free) cargo, and their ratio was used to determine the encapsulation efficiency (EE %).

[2] = Dynamic light scattering: LNP particle size and PDI; format: physicochemical; details: for PDI N/P:3 / Size (nm) N/P:3 / PDI N/P:6 / Size (nm) N/P:6: LNP
Experimental: as §1
d. Dynamic Light Scattering
LNPs were diluted with PBS pH 7.4 to predetermined dilution ranges based on the process step and LNP concentration. Following mixing, the particle size and PDI were measured by a dynamic light scattering instrument.

[3] = LNP compositions for in vivo mouse study, four formulations (F1-F4) pooled, or pools of four compounds
[4] = LNP compositions for in vivo mouse study, four formulations (F1-F4) of the lipid compound pooled, or pools of four compounds (sixteen compositions)
[5] = LNP compositions for Formulation F2 Study

Compound	EE % [1, 3]	mRNA Content [1, 3]	EE (%) N/P:6 ([1]; Formulation F1, N/P 6)	EE (%) N/P:6 ([1]; Formulation F2, N/P 6)	EE (%) N/P:6 ([1]; Formulation F3, N/P 6)	EE (%) N/P:6 ([1]; Formulation F4, N/P 6)	Particle Size (nm) [2, 4]	PDI [2, 3]	PDI N/P:6 ([2]; Formulation F1, N/P 6)	Size (nm) N/P:6 ([2]; Formulation F1, N/P 6)	PDI N/P:6 ([2]; Formulation F2, N/P 6)	Size (nm) N/P:6 ([2]; Formulation F2, N/P 6)	PDI N/P:6 ([2]; Formulation F3, N/P 6)	Size (nm) N/P:6 ([2]; Formulation F3, N/P 6)	PDI N/P:6 ([2]; Formulation F4, N/P 6)	Size (nm) N/P:6 ([2]; Formulation F4, N/P 6)	Organ Mean Total Flux Femur (mouse organs)	Organ Mean Total Flux Heart (mouse organs)	Organ Mean Total Flux Kidney (mouse organs)	Organ Mean Total Flux Liver (mouse organs)	also measured
CCCCCCCC/C=C\CCCCCCCC(=O)OCC(COC(=O)CCCCCCC/C=C\CCCCCCCC)(COC(=O)CCCCCCC/C=C\CCCCCCCC)COC(=O)CCC(CCCCCC)OC(=O)NCCN1CCCC1 (stereo not shown) [Compound 1, 2-((oleoyloxy)methyl)-2-(((4-(((2-(pyrrolidin-1-yl)ethyl)carbamoyl)oxy)decanoyl)oxy)methyl)propane-1,3-diyl dioleate]	99%	102.4 µg/mL	100%	100%	100%	100%	89.9 nm	0.143	0.072	74 ± 1 nm	0.069	89 ± 2 nm	0.051	107 ± 3 nm	0.151	58 ± 2 nm	0.8 p/s (×10^6)	0.1 p/s (×10^6)	0.1 p/s (×10^6)	17.5 p/s (×10^6)	Organ Mean Total Flux Lung (mouse organs): 0.5 p/s (×10^6); Organ Mean Total Flux Muscle (mouse organs): 0.6 p/s (×10^6); Organ Mean Total Flux Pancreas (mouse organs): 0.2 p/s (×10^6); Organ Mean Total Flux Spleen (mouse organs): 1.7 p/s (×10^6); EE (%) N/P:3 ([1]; Formulation F1, N/P 3): 97%; EE (%) N/P:3 ([1]; Formulation F2, N/P 3): 98%; EE (%) N/P:3 ([1]; Formulation F3, N/P 3): 97%; EE (%) N/P:3 ([1]; Formulation F4, N/P 3): 98%; PDI N/P:3 ([2]; Formulation F1, N/P 3): 0.084; Size (nm) N/P:3 ([2]; Formulation F1, N/P 3): 85 ± 4 nm; PDI N/P:3 ([2]; Formulation F2, N/P 3): 0.052; Size (nm) N/P:3 ([2]; Formulation F2, N/P 3): 99 ± 2 nm; PDI N/P:3 ([2]; Formulation F3, N/P 3): 0.037; Size (nm) N/P:3 ([2]; Formulation F3, N/P 3): 136 ± 3 nm; PDI N/P:3 ([2]; Formulation F4, N/P 3): 0.153; Size (nm) N/P:3 ([2]; Formulation F4, N/P 3): 78 ± 1 nm
CCCCC/C=C\C/C=C\CCCCCCCC(=O)OCC(COC(=O)CCCCCCC/C=C\C/C=C\CCCCC)(COC(=O)CCCCCCC/C=C\C/C=C\CCCCC)COC(=O)CCC(CCCCCC)OC(=O)NCCN1CCCC1 (stereo not shown) [Compound 2, 2-((((9Z,12Z)-octadeca-9,12-dienoyl)oxy)methyl)-2-(((4-(((2-(pyrrolidin-1-yl)ethyl)carbamoyl)oxy)decanoyl)oxy)methyl)propane-1,3-diyl (9Z,9′Z,12Z,12′Z)-bis(octadeca-9,12-dienoate)]	96%	86 µg/mL	98%	98%	98%	97%	82.3 nm	0.11	0.16	75 ± 8 nm	0.04	84 ± 1 nm	0.04	91 ± 0 nm	0.18	65 ± 2 nm	0.8 p/s (×10^6)	0.2 p/s (×10^6)	0.7 p/s (×10^6)	99.8 p/s (×10^6)	Organ Mean Total Flux Lung (mouse organs): 2.6 p/s (×10^6); Organ Mean Total Flux Muscle (mouse organs): 0.5 p/s (×10^6); Organ Mean Total Flux Pancreas (mouse organs): 0.2 p/s (×10^6); Organ Mean Total Flux Spleen (mouse organs): 15.6 p/s (×10^6)
CCCCC/C=C\CCOC(=O)CCCCCC(=O)OCC(COC(=O)CCCCCCOC(=O)C(CCCC)CCCCCC)(COC(=O)CCCCCC(=O)OCC/C=C\CCCCC)COC(=O)CCC(CCCCCC)OC(=O)NCCN1CCCC1 (stereo not shown) [Compound 16, O7-[2-[7-(2-butyloctanoyloxy)heptanoyloxymethyl]-2-[[7-[(Z)-non-3-enoxy]-7-oxo-heptanoyl]oxymethyl]-3-[4-(2-pyrrolidin-1-ylethylcarbamoyloxy)decanoyloxy]propyl]O1-[(Z)-non-3-enyl]heptanedioate]	96%	84 µg/mL	99%	99%	98%	99%	82.6 nm	0.125	0.14	73 ± 7 nm	0.07	82 ± 2 nm	0.04	92 ± 0 nm	0.15	64 ± 0 nm	–	–	–	–	–
CCCCCCCCOC(CCC(=O)OCC(COC(=O)CCCCCCOC(=O)C(CCCC)CCCCCC)(COC(=O)CCC(CCCCCC)OC(=O)NCCN1CCCC1)COC(=O)CCC(OCCCCCCCC)OCCCCCCCC)OCCCCCCCC (stereo not shown) [Compound 20, [7-[2,2-bis(4,4-dioctoxybutanoyloxymethyl)-3-[4-(2-pyrrolidin-1-ylethylcarbamoyloxy)decanoyloxy]propoxy]-7-oxo-heptyl]2-butyloctanoate]	97%	98 µg/mL	100%	100%	100%	100%	79 nm	0.02	0.06	64 ± 1 nm	0.03	76 ± 1 nm	0.03	91 ± 2 nm	0.05	61 ± 1 nm	–	–	–	–	–

More lines, main results first:

EE % [1, 3]	mRNA Content [1, 3]	EE (%) N/P:6 ([1]; Formulation F1, N/P 6)	EE (%) N/P:6 ([1]; Formulation F2, N/P 6)	EE (%) N/P:6 ([1]; Formulation F3, N/P 6)	EE (%) N/P:6 ([1]; Formulation F4, N/P 6)	Particle Size (nm) [2, 4]	PDI [2, 3]	PDI N/P:6 ([2]; Formulation F1, N/P 6)	Size (nm) N/P:6 ([2]; Formulation F1, N/P 6)	PDI N/P:6 ([2]; Formulation F2, N/P 6)	Size (nm) N/P:6 ([2]; Formulation F2, N/P 6)	PDI N/P:6 ([2]; Formulation F3, N/P 6)	Size (nm) N/P:6 ([2]; Formulation F3, N/P 6)	PDI N/P:6 ([2]; Formulation F4, N/P 6)	Size (nm) N/P:6 ([2]; Formulation F4, N/P 6)	Compound	Organ Mean Total Flux Femur (mouse organs)	Organ Mean Total Flux Heart (mouse organs)	Organ Mean Total Flux Kidney (mouse organs)	Organ Mean Total Flux Liver (mouse organs)	also measured
96%	80 µg/mL	98%	96%	98%	99%	84.4 nm	0.12	0.12	70 ± 0 nm	0.08	88 ± 3 nm	0.06	97 ± 3 nm	0.16	66 ± 3 nm	CCCCC/C=C\C/C=C\CCCCCCCC(=O)OCC(COC(=O)CCCCCCC/C=C\C/C=C\CCCCC)(COC(=O)CCC(CCCCCC)OC(=O)NCCN1CCCC1)COC(=O)CC12CC3CC(CC(C3)C1)C2 (stereo not shown) [Compound 5, [2-[[2-(1-adamantyl)acetyl]oxymethyl]-2-[[(9Z,12Z)-octadeca-9,12-dienoyl]oxymethyl]-3-[4-(2-pyrrolidin-1-ylethylcarbamoyloxy)decanoyloxy]propyl](9Z,12Z)-octadeca-9,12-dienoate]	–	–	–	–	–
97%	100 µg/mL	99%	99%	99%	99%	81.1 nm	0.066	0.04	67 ± 1 nm	0.02	78 ± 1 nm	0.03	96 ± 2 nm	0.05	65 ± 2 nm	CCCCCCC(CCC(=O)OCC(COC(=O)CCCCCCOC(=O)C(CCCC)CCCCCC)(COC(=O)CCCCCCOC(=O)C(CCCC)CCCCCC)COC(=O)CCCCCCOC(=O)C(CCCC)CCCCCC)OC(=O)NCCN1CCCC1 (stereo not shown) [Compound 18, [7-[2,2-bis[7-(2-butyloctanoyloxy)heptanoyloxymethyl]-3-[4-(2-pyrrolidin-1-ylethylcarbamoyloxy)decanoyloxy]propoxy]-7-oxo-heptyl]2-butyloctanoate]	–	–	–	–	EE % [1, 5]: 98%; PDI [2, 5]: 0.059; Particle Size (nm) [2, 5]: 92.2 nm
